Each structure is given as a SMILES string.

The results in this text go back to patent US20240390338A1, “METHODS FOR TREATING NEUROGENERATIVE DISEASES” (PTC THERAPEUTICS, INC., priority 2021, published 2024).

The subject of this experiment is MAPT 3R mRNA. Description: RT-qPCR Assay to Quantify MAPT 3R mRNA in Cells. In kind it is cell-based. The following applies: cells incubated with compound 24 h; 7-point concentration curve; MAPT minigene 3R RT-qPCR with GAPDH assay; EC2X interpolated from dose response curve. The procedure: RT-qPCR Assay to Quantify MAPT 3R mRNA in Cells
Test compounds were serially diluted 3.16-fold in 100% DMSO to generate a 7-point concentration curve. Aliquots of 0.5 μL of diluted compounds were transferred to a 96-well flat bottom plate by a liquid handler. An aliquot of 0.5 μL DMSO was also transferred to separate wells and used as controls. Duplicate samples were set up for each compound concentration and for the DMSO control.
Cells were thawed and incubated in cell culture media (DMEM, 10% FBS, and 1% antibiotic cocktail) for 72 h. Cells were trypsinized, counted, and re-suspended to a concentration of 200,000 cells/mL in cell culture media. A 100 μL aliquot of the cell suspensions were plated at 20,000 cells per well in the compound containing 96 well microtiter plate and incubated for in a cell culture incubator (37° C., 5% CO2, 100% relative humidity).
After 24 h, media was aspirated from the cells and 20 μL of the RCL2 lysis buffer (10 mM Tris-HCL pH 7.4, 150 mM NaCl, 0.33% IGEPAL® CA-630) was added to each well and incubated at RT for 1 min. Chilled nuclease free water (140 μL per well) was added and the plates were immediately transferred on ice. After 1 min on ice, plates were frozen at −80° C. overnight.
Preparation of RT-qPCR Reaction Mixture:
An aliquot of 4 μL/well of the cell lysates was transferred using the liquid handler to the Armadillo 384-Well PCR plate containing 6 μL/well of the RT-qPCR reaction mixture that was prepared as detailed above. The plates were then sealed with MicroAmp™ Optical Adhesive Film followed by spinning down for 1 min and placed in the CFX384 thermocycler (BioRad).
The RT-qPCR was carried out at the following temperatures for the indicated time: • Step 1: 48° C. (30 min) • Step 2: 95° C. (10 min) • Step 3: 95° C. (15 sec) • Step 4: 60° C. (1 min); then, repeated Steps 3 and 4 for a total of 40 cycles.
The percent exon 4 skipping was calculated for each dose of compound treatment using Equations 1 and 2.
Data were fit to a dose response curve and the EC2X was interpolated using XLfit® statistical and curve fitting package.
An EC2X value between >1000 nM and ≤1500 nM is indicated by two stars (**). An EC2X value between >500 nM and ≤1000 nM is indicated by three stars (***). An EC2X value between >50 nM and ≤500 nM is indicated by four stars (****). An EC2X value ≤50 nM is indicated by five stars (*****).
`C[C@H](N)Cc1sc2c(NCc3ccco3)cc(Cl)nc2c1C1CC1` [Cpd 51, 2-[(2S)-2-aminopropyl]-5-chloro-3-cyclopropyl-N-[(furan-2-yl)methyl]thieno[3,2-b]pyridin-7-amine]: the EC (2-fold increase) was not above 0.05 µM.

With `N[C@H](Cc1sc2c(NCc3ccco3)cc(Cl)nc2c1Cl)C(=O)Nc1ccccc1` [Cpd 122, 3-(3,5-dichloro-7-{[(furan-2-yl)methyl]amino}thieno[3,2-b]pyridin-2-yl)-N-phenyl-D-alaninamide], the EC (2-fold increase) is 0.05 to 0.5 µM. Then `C[C@H](N)C(F)c1sc2c(NCc3cccs3)cc(Cl)nc2c1Br` (stereo partly drawn) [Cpd 158, 2-[(2S)-2-amino-1-fluoropropyl]-3-bromo-5-chloro-N-[(thiophen-2-yl)methyl]thieno[3,2-b]pyridin-7-amine], with not above 0.05 µM; and `CSC[C@H](N)Cc1sc2c(NCc3ccco3)cc(Cl)nc2c1Br` [Cpd 118, 2-[(2R)-2-amino-3-(methylsulfanyl)propyl]-3-bromo-5-chloro-N-[(furan-2-yl)methyl]thieno[3,2-b]pyridin-7-amine], with not above 0.05 µM. Then `N#CC[C@H](N)Cc1sc2c(NCc3ccco3)cc(Cl)nc2c1Br` [Cpd 103, (3S)-3-amino-4-(3-bromo-5-chloro-7-{[(furan-2-yl)methyl]amino}thieno[3,2-b]pyridin-2-yl)butanenitrile], with 0.05 to 0.5 µM. With `C[C@H](F)[C@H](N)Cc1sc2c(NCc3nccs3)cc(Cl)nc2c1Br` [Cpd 125, 2-[(2R,3S)-2-amino-3-fluorobutyl]-3-bromo-5-chloro-N-[(1,3-thiazol-2-yl)methyl]thieno[3,2-b]pyridin-7-amine] the figure was not above 0.05 µM; with `Cc1c(C[C@@H](N)CO)sc2c(NCc3ccco3)cc(Cl)nc12` [Cpd 58, (2R)-2-amino-3-(5-chloro-7-{[(furan-2-yl)methyl]amino}-3-methylthieno[3,2-b]pyridin-2-yl)propan-1-ol], not above 0.05 µM; with `C#C[C@H](N)Cc1sc2c(NCc3ccco3)cc(Cl)nc2c1Cl` [Cpd 166, 2-[(2R)-2-aminobut-3-yn-1-yl]-3,5-dichloro-N-[(furan-2-yl)methyl]thieno[3,2-b]pyridin-7-amine], 0.05 to 0.5 µM. For the compound `N[C@@H](CO)Cc1sc2c(NCc3ccco3)cc(Cl)nc2c1Br` [Cpd 41, (2R)-2-amino-3-(3-bromo-5-chloro-7-{[(furan-2-yl)methyl]amino}thieno[3,2-b]pyridin-2-yl)propan-1-ol], the EC (2-fold increase) fell in the range of 0.5 to 1 µM. Then `Cc1c(C[C@@H](N)CF)sc2c(NCc3cccs3)cc(Cl)nc12` [Cpd 91, 2-[(2R)-2-amino-3-fluoropropyl]-5-chloro-3-methyl-N-[(thiophen-2-yl)methyl]thieno[3,2-b]pyridin-7-amine], with not above 0.05 µM; and `C#C[C@H](N)Cc1sc2c(NCc3ccco3)cc(Cl)nc2c1C` [Cpd 123, 2-[(2R)-2-aminobut-3-yn-1-yl]-3-methyl-5-chloro-N-[(furan-2-yl)methyl]thieno[3,2-b]pyridin-7-amine], with not above 0.05 µM; and `Cc1c(C[C@@H](N)CS(C)(=O)=O)sc2c(NCc3ccco3)cc(Cl)nc12` [Cpd 108, 2-[(2R)-2-amino-3-(methanesulfonyl)propyl]-5-chloro-N-[(furan-2-yl)methyl]-3-methylthieno[3,2-b]pyridin-7-amine], with 0.05 to 0.5 µM.

Consider `COC[C@H](N)Cc1sc2c(NCc3ccco3)cc(Cl)nc2c1C` [Cpd 45, 2-[(2R)-2-amino-3-methoxypropyl]-5-chloro-N-[(furan-2-yl)methyl]-3-methylthieno[3,2-b]pyridin-7-amine], for which the EC (2-fold increase) was not above 0.05 µM.

Turning to `Cc1c(C[C@@H](N)CC(C)C)sc2c(NCc3cccs3)cc(Cl)nc12` [Cpd 61, 2-[(2S)-2-amino-4-methylpentyl]-5-chloro-3-methyl-N-[(thiophen-2-yl)methyl]thieno[3,2-b]pyridin-7-amine], the EC (2-fold increase) was not above 0.05 µM. Regarding `N[C@@H](CCF)Cc1sc2c(NCc3ccco3)cc(Cl)nc2c1Cl` [Cpd 93, 2-[(2S)-2-amino-4-fluorobutyl]-3,5-dichloro-N-[(furan-2-yl)methyl]thieno[3,2-b]pyridin-7-amine], the EC (2-fold increase) lay in the range of 0.05 to 0.5 µM. Take `Cc1c(C[C@@H](N)CC#N)sc2c(NCc3cccs3)cc(Cl)nc12` [Cpd 105, (3S)-3-amino-4-(5-chloro-3-methyl-7-{[(thiophen-2-yl)methyl]amino}thieno[3,2-b]pyridin-2-yl)butanenitrile]: the EC (2-fold increase) lay in the range of 0.05 to 0.5 µM. For `Cc1c(C[C@H](C)N)sc2c(NCc3ccco3)cc(Cl)nc12` [Cpd 18, 2-[(2S)-2-aminopropyl]-5-chloro-N-[(furan-2-yl)methyl]-3-methylthieno[3,2-b]pyridin-7-amine], the EC (2-fold increase) is not above 0.05 µM. Then `Cc1c(C[C@@H](N)C(=O)O)sc2c(NCc3ccco3)cc(Cl)nc12` [Cpd 115, 3-(5-chloro-7-{[(furan-2-yl)methyl]amino}-3-methylthieno[3,2-b]pyridin-2-yl)-D-alanine], with not above 0.05 µM; and `N[C@@H](CO)Cc1cc2nc(Cl)cc(NCc3ccco3)c2s1` [Cpd 17, (2R)-2-amino-3-(5-chloro-7-{[(furan-2-yl)methyl]amino}thieno[3,2-b]pyridin-2-yl)propan-1-ol], with 1 to 1.5 µM; and `Cc1c(C[C@H](C)N)sc2c(NCc3nccs3)cc(Cl)nc12` [Cpd 57, 2-[(2S)-2-aminopropyl]-5-chloro-3-methyl-N-[(1,3-thiazol-2-yl)methyl]thieno[3,2-b]pyridin-7-amine], with not above 0.05 µM. With `Cc1c(C[C@@H](N)CCF)sc2c(NCc3cccs3)cc(Cl)nc12` [Cpd 92, 2-[(2S)-2-amino-4-fluorobutyl]-5-chloro-3-methyl-N-[(thiophen-2-yl)methyl]thieno[3,2-b]pyridin-7-amine], the EC (2-fold increase) was in the range of 0.05 to 0.5 µM. Then `C[C@@H](O)[C@H](N)Cc1sc2c(NCc3ccco3)cc(Cl)nc2c1Br` [Cpd 165, (2R,3R)-3-amino-4-(3-bromo-5-chloro-7-{[(furan-2-yl)methyl]amino}thieno[3,2-b]pyridin-2-yl)butan-2-ol], with not above 0.05 µM; and `N[C@@H](CF)Cc1sc2c(NCc3cccs3)cc(Cl)nc2c1Br` [Cpd 76, 2-[(2R)-2-amino-3-fluoropropyl]-3-bromo-5-chloro-N-[(thiophen-2-yl)methyl]thieno[3,2-b]pyridin-7-amine], with not above 0.05 µM.

For the compound `N[C@@H](CO)Cc1sc2c(NCc3ccco3)cc(Cl)nc2c1Cl` [Cpd 39, (2R)-2-amino-3-(3,5-dichloro-7-{[(furan-2-yl)methyl]amino}thieno[3,2-b]pyridin-2-yl)propan-1-ol], the EC (2-fold increase) was in the range of 0.05 to 0.5 µM. With `Cc1c(C[C@@H](N)[C@H](C)F)sc2c(NCc3nccs3)cc(Cl)nc12` [Cpd 128, 2-[(2R,3S)-2-amino-3-fluorobutyl]-5-chloro-3-methyl-N-[(1,3-thiazol-2-yl)methyl]thieno[3,2-b]pyridin-7-amine] the figure was not above 0.05 µM; with `N[C@@H](CF)Cc1sc2c(NCc3ccco3)cc(Cl)nc2c1Cl` [Cpd 94, 2-[(2R)-2-amino-3-fluoropropyl]-3,5-dichloro-N-[(furan-2-yl)methyl]thieno[3,2-b]pyridin-7-amine], not above 0.05 µM; with `Cc1c(C[C@@H](N)C(=O)N(C)C)sc2c(NCc3ccco3)cc(Cl)nc12` [Cpd 116, 3-(5-chloro-7-{[(furan-2-yl)methyl]amino}-3-methylthieno[3,2-b]pyridin-2-yl)-N,N-dimethyl-D-alaninamide], 0.05 to 0.5 µM. Consider `COC[C@H](N)Cc1sc2c(NCc3ccco3)cc(Cl)nc2c1Br` [Cpd 44, 2-[(2R)-2-amino-3-methoxypropyl]-3-bromo-5-chloro-N-[(furan-2-yl)methyl]thieno[3,2-b]pyridin-7-amine], for which the EC (2-fold increase) is not above 0.05 µM. Then `CC[C@H](N)Cc1sc2c(NCc3cccs3)cc(Cl)nc2c1Br` [Cpd 73, 2-[(2S)-2-aminobutyl]-3-bromo-5-chloro-N-[(thiophen-2-yl)methyl]thieno[3,2-b]pyridin-7-amine], with not above 0.05 µM.
